By AUC is commonly meant the area under the concentration-time curve, a measure of exposure. The Cmax is the peak of the concentration-time curve. Usually half-life stands for how long it takes for the measured level to halve.

This is an account of results in patent US20240197714A1, “METHODS FOR THE ADMINISTRATION OF CERTAIN VMAT2 INHIBITORS” (Neurocrine Biosciences, Inc., priority 2021, published 2024).

Series [1] is described as follows: Phase 1 open-label 2-sequence crossover study, single-dose pharmacokinetics of deutetrabenazine metabolites in healthy subjects. It is filed as in vivo, human. The following applies: for AUC / Cmax / half-life: both sexes, human, oral, plasma; for AUC / Cmax: healthy subjects, single dose deutetrabenazine 24 mg, % CV in parentheses; for half-life: 24 mg; for AUC (% of Total): share of total circulating DHTBZ exposure after single dose deutetrabenazine 24 mg. As for the experimental part: A phase 1, open-label, 2-sequence crossover study was conducted to evaluate the HTBZ PK profile following administration of valbenazine (40 mg) or deutetrabenazine (24 mg) to a total of 18 healthy male and female subjects.
Subjects received a single dose of valbenazine 40 mg on Day 1 and a single dose of deutetrabenazine 24 mg on Day 16; or received a single dose of deutetrabenazine 24 mg on Day 1 and a single dose of valbenazine 40 mg on Day 16. Valbenazine 40 mg was administered as one 40 mg capsule and deutetrabenazine 24 mg was administered as two 12 mg tablets. Study drug was administered at approximately 0800 hours, approximately 30 minutes after the start of a standard breakfast.
PK parameters were determined using non-compartmental analysis with Phoenix WinNonlin 8.3 software. The in vitro pharmacology of the deuterated HTBZ metabolites was assessed using competitive radioligand binding assays.

The conditions of series [2]: AUSTEDO label; likely similar in CYP2D6 poor metabolizers; cited from earlier work.
The mark [3] stands for this setting: metabolites of AUSTEDO, approximate, read-out: half-life (converted).

Where two headings read alike, the source gives them in different places.

For `[2H]C([2H])([2H])Oc1cc2c(cc1OC([2H])([2H])[2H])[C@H]1C[C@@H](O)[C@H](CC(C)C)CN1CC2` [[+]-α-DHTBZ], in series [1], the exposure (AUC) was 11 ng·h/mL, the Cmax is 1.2 ng/mL and the “AUC (% of Total)” value came out at 2%. Also, the half-life in series [1] (setting [3]) is about 6 h.
Consider `[2H]C([2H])([2H])Oc1cc2c(cc1OC([2H])([2H])[2H])[C@H]1C[C@H](O)[C@H](CC(C)C)CN1CC2` [[+]-β-DHTBZ, (+)-β-3-isobutyl-9,10-di(methoxy-d3)-1,3,4,6,7,11b-hexahydro-2H-pyrido[2,1-a]isoquinolin-2-ol], for which, in series [1], the AUC turned out to be 176 ng·h/mL, the Cmax was determined as 20.4 ng/mL and the “AUC (% of Total)” value is 29%. Besides, the half-life in series [1] (after deutetrabenazine administration, read-out: mean half-life (converted)) was 7.7 h. In addition, the half-life in series [1] (setting [3]) is about 5 h.
Regarding `[2H]C([2H])([2H])Oc1cc2c(cc1OC([2H])([2H])[2H])[C@@H]1C[C@H](O)[C@@H](CC(C)C)CN1CC2` [[−]-α-DHTBZ, (−)-α-3-isobutyl-9,10-di(methoxy-d3)-1,3,4,6,7, 11b-hexahydro-2H-pyrido[2,1-a]isoquinolin-2-ol], in series [1], the exposure (AUC) was determined as 396 ng·h/mL, the Cmax was found to be 32.2 ng/mL and the “AUC (% of Total)” value was determined as 66%. Further, the half-life in series [1] (setting [3]) is about 12 h.
Taken in the same sequence, the figures for `[2H]C([2H])([2H])Oc1cc2c(cc1OC([2H])([2H])[2H])[C@@H]1C[C@@H](O)[C@@H](CC(C)C)CN1CC2` [[−]-β-DHTBZ, (−)-β-3-isobutyl-9,10-di(methoxy-d3)-1,3,4,6,7,11b-hexahydro-2H-pyrido[2,1-a]isoquinolin-2-ol] were 15.8 ng·h/mL, 1.7 ng/mL, 3% and about 8 h.
Consider `COc1cc2c(cc1OC)[C@@H]1C[C@H](O)[C@@H](CC(C)C)CN1CC2` [α-DHTBZ], for which, in series [2], the “increase of exposure when taking a strong CYP2D6 inhibitor” value is recorded as “approximately 3 fold”.
